Laboratory results as given in paper PMC3325759 (Journal of Natural Products, 2011).
pEC50: −log10 of the molar value.

Tests used:
[1] = test system: H-460 human lung cell lines; test: Cytotoxicity to H-460 cells; format: cell-based; details: all tested concentrations (up to 20 µg/mL)
[2] = target: human recombinant CB1 receptor (Homo sapiens, UniProt P21554); test: biochemical; format: binding
human recombinant CB1 receptor, sequence (P21554 whole entry): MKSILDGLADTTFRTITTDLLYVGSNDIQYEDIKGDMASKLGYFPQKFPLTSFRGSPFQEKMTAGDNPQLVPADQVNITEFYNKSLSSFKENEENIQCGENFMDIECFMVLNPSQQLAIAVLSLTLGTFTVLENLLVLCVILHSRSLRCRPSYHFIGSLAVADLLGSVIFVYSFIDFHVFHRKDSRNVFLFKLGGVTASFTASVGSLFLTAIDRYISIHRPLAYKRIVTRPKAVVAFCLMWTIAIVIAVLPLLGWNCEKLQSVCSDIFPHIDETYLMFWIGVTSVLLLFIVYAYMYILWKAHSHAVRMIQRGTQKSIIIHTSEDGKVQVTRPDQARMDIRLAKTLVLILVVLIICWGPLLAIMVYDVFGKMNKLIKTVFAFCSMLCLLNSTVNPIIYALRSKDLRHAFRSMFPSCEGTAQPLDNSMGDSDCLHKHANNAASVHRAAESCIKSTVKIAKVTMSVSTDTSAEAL

Row | SMILES | cytotoxicity (in words) [1] | affinity for the CB1 cannabinoid receptor (in words) ([2]; radioligand binding assay) | pEC50 [2]
1 | C=C(CCCCCCCCCCCCC)CCCC(=O)O/C=C\COC(C)=O [compound 4, propenediester] | inactive | completely inactive | 
2 | CCCCCCCCCCCCC/C=C/CCC(=O)N(C)[C@H](CO)COC [compound 3, serinolamide A] |  |  | 5.64
